ChEMBL document CHEMBL6103629 (J Med Chem, 2025)

Legend:
[1] = Toxicity in female Balb/c nude mouse xenografted with human LoVo cells assessed as body weight at 40 mg/kg QD, po measured every 3 days for 25 days; type: organism-based; details: in vivo, 600 h, time 25 day
CYP2B6 = CYP2B6 (Homo sapiens, UniProt P20813); experiment: Inhibition of recombinant human CYP2B6 assessed as residual activity at 1 uM in the presence of NADPH incubated for 60 mins by LC-MS/MS analysis relative to control; type: ADME; details: read-out: Activity
Sequence of CYP2B6 (P20813 whole entry): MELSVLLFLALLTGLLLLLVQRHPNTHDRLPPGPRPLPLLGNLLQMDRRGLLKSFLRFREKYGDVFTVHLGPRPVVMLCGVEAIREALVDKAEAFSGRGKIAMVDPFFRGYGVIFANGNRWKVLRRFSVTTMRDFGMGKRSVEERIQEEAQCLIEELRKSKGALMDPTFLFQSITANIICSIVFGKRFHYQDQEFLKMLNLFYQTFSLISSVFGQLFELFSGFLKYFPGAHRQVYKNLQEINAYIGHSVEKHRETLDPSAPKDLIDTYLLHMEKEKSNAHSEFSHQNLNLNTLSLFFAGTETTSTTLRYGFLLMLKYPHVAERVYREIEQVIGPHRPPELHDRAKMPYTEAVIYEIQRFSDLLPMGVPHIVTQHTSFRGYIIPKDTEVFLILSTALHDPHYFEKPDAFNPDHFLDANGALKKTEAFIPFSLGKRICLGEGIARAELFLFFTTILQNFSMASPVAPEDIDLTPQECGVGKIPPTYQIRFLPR

[2] = Drug metabolism in CD-1 mouse liver cells at 2 uM incubated upto 120 mins by LC-MS/MS analysis; type: ADME, cell-based; details: 2 h
[3] = Toxicity in Beagle dogs assessed as effect on cardiovascular system at 5 to 20 mg/kg, po administrated as single dose upto 24 hrs; type: organism-based, Canis lupus familiaris; details: dog, in vivo, dose 5-20 mg/kg
[4] = Drug metabolism in Beagle dogs liver cells at 2 uM incubated upto 120 mins by LC-MS/MS analysis; type: ADME, cell-based, Canis lupus familiaris; details: dog, 2 h
Cytochrome P450 2C19 = Cytochrome P450 2C19 (Homo sapiens, UniProt P33261); experiment: Inhibition of CYP2C19 in human liver microsomes in the presence of NADPH incubated for 60 mins by LC-MS/MS analysis; type: ADME, Microsome
Sequence of Cytochrome P450 2C19 (P33261 whole entry): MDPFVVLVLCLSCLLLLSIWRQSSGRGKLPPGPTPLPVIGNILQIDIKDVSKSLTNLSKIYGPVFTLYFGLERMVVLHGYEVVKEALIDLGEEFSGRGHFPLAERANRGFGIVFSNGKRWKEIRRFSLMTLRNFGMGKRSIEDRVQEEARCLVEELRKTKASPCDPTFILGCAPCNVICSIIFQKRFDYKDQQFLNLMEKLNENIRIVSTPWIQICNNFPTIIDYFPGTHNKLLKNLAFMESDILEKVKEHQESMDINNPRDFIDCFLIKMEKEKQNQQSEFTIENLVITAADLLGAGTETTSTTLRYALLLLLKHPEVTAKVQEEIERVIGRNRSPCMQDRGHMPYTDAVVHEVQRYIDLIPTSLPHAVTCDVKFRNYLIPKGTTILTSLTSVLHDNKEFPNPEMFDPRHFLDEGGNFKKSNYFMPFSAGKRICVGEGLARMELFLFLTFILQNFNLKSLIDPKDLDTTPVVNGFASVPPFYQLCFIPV

Cytochrome P450 2B6 = Cytochrome P450 2B6 (Homo sapiens, UniProt P20813); experiment: Inhibition of CYP2B6 in human liver microsomes in the presence of NADPH incubated for 60 mins by LC-MS/MS analysis; type: ADME, Microsome
Sequence of Cytochrome P450 2B6 (P20813 whole entry): as the sequence (P20813 whole entry) above

[5] = Dissociation constant, pKa of compound; type: physicochemical
LoVo [6] = experiment: Antitumor activity against human LoVo cells xenografted in female Balb/c nude mouse assessed as tumor growth inhibition at 10 mg/kg QD, po measured every 3 days for 25 days relative to control; type: functional; details: 600 h, time 25 day, read-out: TGI
[7] = Stability in human plasma assessed as half life by LC-MS/MS analysis; type: ADME, cell-free
[8] = Toxicity in Sprague-Dawley rats assessed as effect on central nervous system at 10 to 40 mg/kg, po administrated as single dose upto 24 hrs; type: organism-based; details: rat, in vivo, dose 10-40 mg/kg
[9] = Drug distribution in Sprague-Dawley rat brain at 5 mg/kg, IG administrated as single dose measured after 0.5 hrs by LC-MS/MS analysis; type: ADME, organism-based; details: po, read-out: Ct
Hepatocyte = experiment: Cytotoxicity against human primary hepatocytes isolated from RAS donor at 0.1 to 10 uM incubated for 72 hrs by cytotox-glo assay; type: toxicity, cell-based; details: dose 0.1-10 µM
[10] = Induction of CYP1A2 mRNA expression in human primary hepatocyte isolated from YND donor at 0.1 to 10 uM incubated for 72 hrs by real-time PCR analysis; type: ADME, cell-based; details: hepatocytes, dose 0.1-10 µM
[11] = Induction of CYP3A4 mRNA expression in human primary hepatocyte isolated from DZM donor at 0.1 to 10 uM incubated for 72 hrs by real-time PCR analysis; type: ADME, cell-based; details: hepatocytes, dose 0.1-10 µM
LoVo [12] = experiment: Induction of apoptosis in human LoVo cells assessed as viable cells at 3 uM incubated for 24 hrs by Annexin-V-FITC-PI staining based flow cytometric analysis (reference value: 72.1 %); type: functional; details: read-out: Activity
LoVo [13] = experiment: Induction of apoptosis in human LoVo cells assessed as necrotic cells at 3 uM incubated for 24 hrs by Annexin-V-FITC-PI staining based flow cytometric analysis (reference value: 0.97 %); type: functional
[14] = Induction of CYP2B6 mRNA expression in human primary hepatocyte isolated from DZM donor at 0.1 to 10 uM incubated for 72 hrs by real-time PCR analysis; type: ADME, cell-based; details: hepatocytes, dose 0.1-10 µM
[15] = Stability in Sprague-Dawley rat plasma assessed as half life by LC-MS/MS analysis; type: ADME, cell-free
LoVo [16] = experiment: Antitumor activity against human LoVo cells xenografted in female Balb/c nude mouse assessed as tumor growth inhibition at 20 mg/kg QD, po measured every 3 days for 25 days relative to control; type: functional; details: 600 h, time 25 day, read-out: TGI
Cytochrome P450 2C9 = Cytochrome P450 2C9 (Homo sapiens, UniProt P11712); experiment: Inhibition of CYP2C9 in human liver microsomes in the presence of NADPH incubated for 60 mins by LC-MS/MS analysis; type: ADME, Microsome
Sequence of Cytochrome P450 2C9 (P11712 whole entry): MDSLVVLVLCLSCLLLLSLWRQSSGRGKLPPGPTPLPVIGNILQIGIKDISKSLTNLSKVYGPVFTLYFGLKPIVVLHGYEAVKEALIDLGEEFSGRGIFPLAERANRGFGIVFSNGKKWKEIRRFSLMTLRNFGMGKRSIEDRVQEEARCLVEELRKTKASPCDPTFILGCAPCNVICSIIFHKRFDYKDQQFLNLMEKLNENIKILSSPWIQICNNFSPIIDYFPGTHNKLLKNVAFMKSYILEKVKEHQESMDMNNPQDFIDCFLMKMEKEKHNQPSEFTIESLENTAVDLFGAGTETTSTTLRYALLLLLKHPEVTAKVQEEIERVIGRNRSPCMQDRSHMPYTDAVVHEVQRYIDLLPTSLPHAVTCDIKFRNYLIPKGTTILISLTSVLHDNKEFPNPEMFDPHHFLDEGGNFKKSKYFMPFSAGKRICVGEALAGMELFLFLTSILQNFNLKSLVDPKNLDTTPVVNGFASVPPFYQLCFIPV

[17] = Plasma protein binding in Beagle dog at 1 uM incubated for 5 hrs in HTD dialysis in the presence of verapamil by LC-MS/MS analysis relative to control; type: ADME, cell-free, Canis lupus familiaris; details: read-out: PPB (converted)
[18] = Permeability across basolateral to apical side in human Caco-2 cells at 0.1 to 10 uM incubated for 120 mins by LC-MS/MS analysis; type: ADME, cell-based; details: caco-2, 2 h, dose 0.1-10 µM
[19] = Plasma protein binding in Sprague-Dawley rat at 1 uM incubated for 5 hrs in HTD dialysis in the presence of verapamil by LC-MS/MS analysis relative to control; type: ADME, cell-free; details: read-out: PPB (converted)
[20] = Permeability across basolateral to apical side in human MDCK-MDR1 cells at 0.1 to 10 uM incubated for 120 mins by LC-MS/MS analysis; type: ADME, cell-based, Canis lupus familiaris; details: dog, mdck-mdr1, 2 h, dose 0.1-10 µM
CYP2C9 = CYP2C9 (Homo sapiens, UniProt P11712); experiment: Inhibition of recombinant human CYP2C9 assessed as residual activity at 1 uM in the presence of NADPH incubated for 60 mins by LC-MS/MS analysis relative to control; type: ADME; details: read-out: Activity
Sequence of CYP2C9 (P11712 whole entry): as above

[21] = Permeability across apical to basolateral side in human MDCK-MDR1 cells at 0.1 to 10 uM incubated for 120 mins by LC-MS/MS analysis; type: ADME, cell-based, Canis lupus familiaris; details: dog, mdck-mdr1, 2 h, dose 0.1-10 µM
LoVo [22] = experiment: Antitumor activity against human LoVo cells xenografted in female Balb/c nude mouse assessed as tumor growth inhibition at 40 mg/kg QD, po measured every 3 days for 25 days relative to control; type: functional; details: 600 h, time 25 day, read-out: TGI
Cytochrome P450 3A4 = Cytochrome P450 3A4 (Homo sapiens, UniProt P08684); experiment: Inhibition of CYP3A4 in human liver microsomes using midazolam as substrate and in presence of NADPH incubated for 60 mins by LC-MS/MS analysis; type: ADME, Microsome
Sequence of Cytochrome P450 3A4 (P08684 whole entry): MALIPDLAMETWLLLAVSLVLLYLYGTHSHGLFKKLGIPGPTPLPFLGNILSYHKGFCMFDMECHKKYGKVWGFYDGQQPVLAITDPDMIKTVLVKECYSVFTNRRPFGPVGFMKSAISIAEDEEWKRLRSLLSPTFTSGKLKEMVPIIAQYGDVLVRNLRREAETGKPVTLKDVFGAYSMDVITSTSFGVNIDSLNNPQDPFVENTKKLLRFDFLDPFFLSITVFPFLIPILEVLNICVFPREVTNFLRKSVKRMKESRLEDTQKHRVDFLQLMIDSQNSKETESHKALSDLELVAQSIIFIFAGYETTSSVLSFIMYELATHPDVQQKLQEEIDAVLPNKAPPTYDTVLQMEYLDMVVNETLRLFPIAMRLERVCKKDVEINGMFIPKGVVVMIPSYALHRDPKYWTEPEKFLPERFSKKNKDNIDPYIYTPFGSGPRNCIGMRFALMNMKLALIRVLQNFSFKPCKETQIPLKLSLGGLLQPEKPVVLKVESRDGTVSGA

[23] = Drug accumulation in male Beagle dogs at 5 mg/kg, IG measured for 7 days by LC-MS/MS analysis; type: ADME, organism-based, Canis lupus familiaris; details: dog, in vivo, po, 168 h, time 7 day
LoVo [24] = experiment: Induction of apoptosis in human LoVo cells assessed as early apoptotic cells at 3 uM incubated for 24 hrs by Annexin-V-FITC-PI staining based flow cytometric analysis (reference value: 13.7 %); type: functional
LoVo [25] = experiment: Induction of apoptosis in human LoVo cells assessed as viable cells at 1 uM incubated for 24 hrs by Annexin-V-FITC-PI staining based flow cytometric analysis (reference value: 72.1 %); type: functional; details: read-out: Activity
CYP3A4 = CYP3A4 (Homo sapiens, UniProt P08684); experiment: Inhibition of recombinant human CYP3A4 assessed as residual activity at 1 uM in the presence of NADPH incubated for 60 mins by LC-MS/MS analysis relative to control; type: ADME; details: read-out: Activity
Sequence of CYP3A4 (P08684 whole entry): as above

LoVo [26] = experiment: Induction of apoptosis in human LoVo cells assessed as late apoptotic cells at 3 uM incubated for 24 hrs by Annexin-V-FITC-PI staining based flow cytometric analysis (reference value: 13.2 %); type: functional
[27] = Induction of CYP3A4 mRNA expression in human primary hepatocyte isolated from RAS donor at 0.1 to 10 uM incubated for 72 hrs by real-time PCR analysis; type: ADME, cell-based; details: hepatocytes, dose 0.1-10 µM

## Cc1nn(-c2cccnc2)c(C)c1-c1cc(N2CC3CCC(C2)O3)nc2c(-c3ccn[nH]3)cnn12.O=C(O)/C=C/C(=O)O
[1]
  Activity: Non-toxic
CYP2B6
  activity at 1 h, 1 µM: 94.1%
[2]
  Drug metabolism: metabolite_detected
[3]
  Activity: Non-toxic
[4]
  Drug metabolism: metabolite_detected
Cytochrome P450 2C19
  IC50: 54.2 µM
Cytochrome P450 2B6
  IC50: > 100 µM
[5]
  pKa: 4.25
LoVo [6]
  inhibition in vivo at 10 mg/kg: 13.9%
[7]
  half-life: > 2 h
[8]
  Activity: Non-toxic
[9]
  concentration at 0.5 h: 4.47 ng/g
Hepatocyte
  Activity: Non-toxic
[10]
  Activity: Not_active
[11]
  Activity: Active
LoVo [12]
  viability at 3 µM: 53.7%
LoVo [13]
  Activity: 2.65%
[14]
  Activity: Active
[15]
  half-life: > 2 h
LoVo [16]
  inhibition in vivo at 20 mg/kg: 26.9%
Cytochrome P450 2C9
  IC50: 32.8 µM
[17]
  fraction unbound at 5 h, 1 µM: 0.256
[18]
  permeability: Permeable
[19]
  fraction unbound at 5 h, 1 µM: 0.136
[20]
  permeability: Permeable
CYP2C9
  activity at 1 h, 1 µM: 102%
[21]
  permeability: Permeable
LoVo [22]
  inhibition in vivo at 40 mg/kg: 42.6%
Cytochrome P450 3A4
  IC50: 48.4 µM
[23]
  Drug uptake: Active
LoVo [24]
  Activity: 23.8%
LoVo [25]
  viability at 1 µM: 65%
CYP3A4
  activity at 1 h, 1 µM: 73.3%
LoVo [26]
  Activity: 19.8%
[27]
  Activity: Active
